Source: patent US20250186436A1 (4E Therapeutics, Inc., priority 2021, published 2025)

Key:
[1] = target: T1, recombinant full length human kinase MNK2 (Homo sapiens, UniProt Q9HBH9); test: MNK2 radiometric kinase activity assay; type: biochemical
T1 construct: the recombinant full length human kinase MNK2; made in house; host or cells: insect cells

[2] = system: P-gp (human MDR1, ABCB1); test: MDCK-MDR1 permeability (blood-brain barrier permeability); conditions: dog
[3] = in vitro; conditions: mouse, microsomes
[4] = system: eIF4E phosphorylation at Serine 209 in HEK 293 cells; test: eIF4E phosphorylation in HEK 293 cells (phospho-specific antibody, fluorescent plate reader); type: cell-based; conditions: Homo sapiens, HEK293; eIF4E phosphorylation at Serine 209, 2 hours exposure; read-out: HEK 293 cell;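 also: Well-level p-eIF4E immunofluorescence normalized to DAPI signal, expressed as percent eIF4E phosphorylation, with IC50 derived from concentration-response curves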
[5] = system: P-gp (human MDR1, ABCB1); test: in vitro; conditions: dog, MDCK-MDR1
[6] = target: T2, recombinant full-length human kinase MNK1 (Homo sapiens, UniProt Q9BUB5); test: MNK1 radiometric kinase activity assay; type: biochemical
T2 construct: the recombinant full-length human kinase MNK1; made in house; host or cells: insect cells
T2 sequence (Q9BUB5 whole entry): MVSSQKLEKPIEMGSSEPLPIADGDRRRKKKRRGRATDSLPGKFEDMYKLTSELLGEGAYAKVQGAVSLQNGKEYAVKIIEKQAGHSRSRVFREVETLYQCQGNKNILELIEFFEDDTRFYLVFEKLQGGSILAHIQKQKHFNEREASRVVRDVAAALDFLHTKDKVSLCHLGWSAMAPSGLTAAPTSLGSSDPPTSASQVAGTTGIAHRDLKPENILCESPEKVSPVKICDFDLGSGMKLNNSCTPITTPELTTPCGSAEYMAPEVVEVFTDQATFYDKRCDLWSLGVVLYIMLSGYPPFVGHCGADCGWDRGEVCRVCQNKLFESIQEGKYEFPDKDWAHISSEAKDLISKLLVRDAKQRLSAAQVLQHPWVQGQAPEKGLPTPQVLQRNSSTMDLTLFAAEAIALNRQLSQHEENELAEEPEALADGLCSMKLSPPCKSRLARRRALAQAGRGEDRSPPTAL

T1 sequence (Q9HBH9 whole entry): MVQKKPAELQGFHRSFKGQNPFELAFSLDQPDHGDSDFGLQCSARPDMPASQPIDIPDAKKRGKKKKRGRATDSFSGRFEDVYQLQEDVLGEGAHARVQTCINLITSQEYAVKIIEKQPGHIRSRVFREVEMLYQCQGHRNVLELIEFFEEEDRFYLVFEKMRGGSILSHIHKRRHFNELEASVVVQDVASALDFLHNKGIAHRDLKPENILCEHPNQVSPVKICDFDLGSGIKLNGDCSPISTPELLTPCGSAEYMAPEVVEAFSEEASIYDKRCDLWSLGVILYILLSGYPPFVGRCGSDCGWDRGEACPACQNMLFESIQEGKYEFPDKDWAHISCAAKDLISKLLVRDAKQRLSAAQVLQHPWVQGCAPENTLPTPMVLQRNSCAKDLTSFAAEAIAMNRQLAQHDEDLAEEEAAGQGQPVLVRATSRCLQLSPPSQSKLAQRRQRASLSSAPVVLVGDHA

Cc1cc(Nc2cc(NC(=O)C3CC3)ncn2)c(=O)n2c1C(=O)NC21CCC2(CC1)CN2 (stereo not shown) [4ET-03-040, N-(6-((8″-methyl-1″,5″-dioxo-1″,5″-dihydro-2″H-dispiro[aziridine-2,1′-cyclohexane-4′,3″-imidazo[1,5-a]pyridin]-6″-yl)amino)pyrimidin-4-yl)cyclopropanecarboxamide]
IC50 [1]: 2 nM
efflux ratio at 5 uM [2]: 2.4
half-life [3]: 1.28 h
IC50 [4]: 27.4 nM
Papp A→B at 5 uM [5]: 0.6 ×10⁻⁶ cm/s
Papp B→A at 5 uM [5]: 1.6 ×10⁻⁶ cm/s
IC50 [6]: 38.6 nM
